{"source": "patent US20220177818A1", "about": "“OPERATION PROCESS FOR A CELL CULTIVATION SYSTEM” (THE AUTOMATION PARTNERSHIP (CAMBRIDGE ) LTD., priority 2019, published 2022)", "tested_on": "fucosyltransferase", "experiment": "Feedback experiment: glycan profile of the monoclonal antibody from parallel CHO-bioreactor cultivations after feeding the inhibitor", "format": "cell-based", "details": "Day 12 (end of cultivation), inhibitor in feed once per day from day 4; average of all 3 cultivations; relative to total measured glycans", "description": "In said experiment, parallel CHO-bioreactor cultivations producing a monoclonal antibody were started.\nValues are in relative to the total amount of measured glycans. The different glycan profile abbreviations are explained in FIG. 7B. […] A decision was taken to reduce the fucosylated species, for example in order to increase ADCC potency (see e.g. Peipp et al 2008).\nFor this reason, the feeding strategy was adapted to contain an inhibitor of fucosyltransferase (2F-Peracetly-Fucose) in the feed (73). The feed was administered once per day throughout the experiment. Process samples were taken at the end of cultivation (day 12) and analyzed to check for the effect of the altered feeding strategy and compared to data from standard cultivations (74)."}
{"smiles": "CC(=O)OC1O[C@@H](C)[C@@H](OC(C)=O)[C@@H](OC(C)=O)[C@@H]1F", "note": "(stereo partly drawn) [2F-Peracetly-Fucose, 2F-Peracetyl-Fucose]", "values": [{"measurement": "percentage distribution of analyzed glycans: FA2", "result": "7,3%"}, {"measurement": "percentage distribution of analyzed glycans: FA2G1", "result": "2,6%"}, {"measurement": "percentage distribution of analyzed glycans: FA2G2", "result": "0,26%"}]}
